From US20020137929A1, “1 - (3-heterocyclylphenyl) isothiourea, -isourea, -guanidine and -amidine herbicidal agents” (Intellectual Property Department, BASF Aktiengesellschaft, priority 1998, published 2002)

Assays:
[1] = system: CHEAL (Lambsquarters, Common); test: Preemergence herbicidal evaluation; type: in vivo, Chenopodium album; details: rated 4-5 weeks after treatment; for CHEAL rating: preemergence, 0-9 scale
Outline: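 Greenhouse preemergence test: seed-soil mix sown on ~1 inch soil; aqueous acetone spray at equivalent of ~0.0156–0.500 kg/ha; greenhouse-held and watered; scored 0–9 visually at 4–5 weeks.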

MOOVA (Monochoria) = test: Postemergence weed control under flooded paddy conditions; type: in vivo, Monochoria vaginalis; details: postemergence weeds, rated 3 to 4 weeks after treatment
Outline: (§1)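 With weeds 3 to 5 cm tall and rice at the 1.5 to 2.5 leaf stage, containers were flooded and water held 1.5 to 3 cm above soil. Compounds in 50/50 v/v aqueous/acetone went into the flood water at about 0.0313 to 0.500 kg/ha a.i. Effects were visually rated 0–9 against controls after three to four weeks in the greenhouse.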

[2] = system: TRZAWR (Wheat, Winter, cv Riband); test: Postemergence herbicidal evaluation; type: in vivo, Triticum aestivum; details: postemergence
Outline: (§2)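 Visual 0-9 injury score (stand, vigor, malformation, size, chlorosis, appearance vs untreated) taken four to five weeks post-spray, averaged across repeat tests. Test plants about two weeks old; foliar spray of acetone/water (1:1) with 0.5% surfactant delivering ~0.0156-0.500 kg active/ha.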

GALAP (Galium) = test: Postemergence herbicidal evaluation; type: in vivo, Galium aparine; details: postemergence
Outline: as §2

AMBEL (Ragweed, Common) = test: Postemergence herbicidal evaluation; type: in vivo, Ambrosia artemisifolia; details: postemergence
Outline: as §2

[3] = system: SAGPY (Arrowhead (Pygmaea)); test: Postemergence weed control under flooded paddy conditions; type: in vivo, Sagittaria pygmaea; details: postemergence weeds, rated 3 to 4 weeks after treatment
Outline: as §1

Structure (SMILES) | CHEAL rating ([1]; 0.1250 kg/ha) | CHEAL rating ([1]; 0.2500 kg/ha) | Preemergence herbicidal rating CHEAL ([1]; rate 0.0156 kg/ha) | Preemergence herbicidal rating CHEAL ([1]; rate 0.0313 kg/ha) | Preemergence herbicidal rating CHEAL ([1]; rate 0.0625 kg/ha) | Preemergence herbicidal rating CHEAL ([1]; rate 0.1250 kg/ha) | Preemergence herbicidal rating CHEAL ([1]; rate 0.2500 kg/ha) | Herbicidal rating SAGPY ([3]; Rate 0.0313 kg/ha) | Herbicidal rating SAGPY ([3]; Rate 0.0625 kg/ha) | Herbicidal rating SAGPY ([3]; Rate 0.1250 kg/ha) | Herbicidal rating SAGPY ([3]; Rate 0.2500 kg/ha) | TRZAWR herbicidal rating ([2]; rate 0.0158 kg/ha) | TRZAWR herbicidal rating ([2]; rate 0.0315 kg/ha) | TRZAWR herbicidal rating ([2]; rate 0.0630 kg/ha) | GALAP herbicidal rating (GALAP (Galium); rate 0.0158 kg/ha) | GALAP herbicidal rating (GALAP (Galium); rate 0.0315 kg/ha) | GALAP herbicidal rating (GALAP (Galium); rate 0.0630 kg/ha) | AMBEL herbicidal rating (AMBEL (Ragweed, Common); rate 0.0158 kg/ha) | AMBEL herbicidal rating (AMBEL (Ragweed, Common); rate 0.0315 kg/ha) | AMBEL herbicidal rating (AMBEL (Ragweed, Common); rate 0.0630 kg/ha) | other results
CN1C(=O)C(CC(=O)NS(C)(=O)=O)SC1=Nc1cc(-n2c(=O)cc(C(F)(F)F)n(C)c2=O)c(F)cc1Cl (stereo not shown) [Compound 97, 2-{{2-Chloro-5-[3,6-dihydro-3-methyl-2,6-dioxo-4-(trifluoromethyl)-1(2H)-pyrimidinyl]-4-fluorophenyl}imino}-3-methyl-N-(methylsulfonyl)-4-oxo-5-thiazolidineacetamide] | 7.0 | 9.0 | – | – | – | – | – | – | – | – | – | – | – | – | – | – | – | – | – | – | CHEAL rating ([1]; 0.5000 kg/ha): 9.0; Herbicidal rating MOOVA (MOOVA (Monochoria); Rate 0.0313 kg/ha): 9.0; Herbicidal rating MOOVA (MOOVA (Monochoria); Rate 0.0625 kg/ha): 9.0; Herbicidal rating MOOVA (MOOVA (Monochoria); Rate 0.1250 kg/ha): 9.0; Herbicidal rating MOOVA (MOOVA (Monochoria); Rate 0.2500 kg/ha): 9.0; TRZAWR herbicidal rating ([2]; rate 0.0156 kg/ha): 1.0; TRZAWR herbicidal rating ([2]; rate 0.0313 kg/ha): 1.5; TRZAWR herbicidal rating ([2]; rate 0.0625 kg/ha): 2.5; TRZAWR herbicidal rating ([2]; rate 0.1250 kg/ha): 4.0; GALAP herbicidal rating (GALAP (Galium); rate 0.0156 kg/ha): 0.0; GALAP herbicidal rating (GALAP (Galium); rate 0.0313 kg/ha): 0.0; GALAP herbicidal rating (GALAP (Galium); rate 0.0625 kg/ha): 1.0; GALAP herbicidal rating (GALAP (Galium); rate 0.1250 kg/ha): 1.0; AMBEL herbicidal rating (AMBEL (Ragweed, Common); rate 0.0156 kg/ha): 0.0; AMBEL herbicidal rating (AMBEL (Ragweed, Common); rate 0.0313 kg/ha): 1.0; AMBEL herbicidal rating (AMBEL (Ragweed, Common); rate 0.0625 kg/ha): 4.0; AMBEL herbicidal rating (AMBEL (Ragweed, Common); rate 0.1250 kg/ha): 7.0
COC(=O)[C@H](Cc1ccccc1)N1C(=O)CS/C1=N/c1cc(-n2c(=O)cc(C(F)(F)F)n(C)c2=O)c(F)cc1Cl [Compound 72, Methyl α-benzyl-2-{{2-chloro-5-[3,6-dihydro-3-methyl-2,6-dioxo-4-(trifluoromethyl)-1(2H)-pyrimidinyl]-4-fluorophenyl]imino}-4-oxo-3-thiazolidineacetate, L-] | – | – | 9.0 | 9.0 | 9.0 | 9.0 | 9.0 | 4.0 | 4.0 | 4.0 | 4.0 | 3.5 | 4.0 | 4.5 | 6.0 | 7.0 | 9.0 | 5.0 | 9.0 | 6.0 | –
Cn1c(C(F)(F)F)cc(=O)n(-c2cc(N=C3SCC(=O)N3[C@H](Cc3ccccc3)C(=O)O)c(Cl)cc2F)c1=O [Compound 69, α-Benzyl-2-{{2-chloro-5-[3,6-dihydro-3-methyl-2,6-dioxo-4-(trifluoromethyl)-1(2H)-pyrimidinyl]-4-fluorophenyl}imino}-4-oxo-3-thiazolidineacetic acid, D-] | – | – | 9.0 | 9.0 | 9.0 | 9.0 | 9.0 | 0.0 | 0.0 | 3.0 | 3.0 | 3.0 | 3.0 | 4.5 | 0.0 | 1.0 | 5.0 | 9.0 | 9.0 | 9.0 | –
CCOC(=O)CN1C(=O)C(CC(=O)OCCF)SC1=Nc1cc(-n2c(=O)cc(C(F)(F)F)n(C)c2=O)c(F)cc1Cl (stereo not shown) [Compound 82, 2-{{2-Chloro-5-[3,6-dihydro-3-methyl-2,6-dioxo-4-(trifluoromethyl)-1(2H)-pyrimidinyl]-4-fluoro-phenyl}imino}-4-oxo-3,5-thiazolidinediacetic acid, 3-ethyl 2-fluoroethyl ester] | 9.0 | 9.0 | – | – | – | – | – | 4.0 | 4.0 | 4.0 | 7.0 | 7.5 | 7.5 | 8.5 | 4.0 | 9.0 | 9.0 | 9.0 | 9.0 | 9.0 | CHEAL rating ([1]; 0.0156 kg/ha): 9.0; CHEAL rating ([1]; 0.0313 kg/ha): 9.0; CHEAL rating ([1]; 0.0625 kg/ha): 9.0
